Legend:
[1] = biological target: T1, vitamin D receptor (VDR) (Homo sapiens, UniProt P11473); assay: vitamin D-dependent transcriptional activation: growth hormone production in transfected COS-1 cells; assay type: cell-based; conditions: transfected COS-1 cells
T1 construct: RXR partner endogenous (monkey)
T1 sequence (P11473 1-427): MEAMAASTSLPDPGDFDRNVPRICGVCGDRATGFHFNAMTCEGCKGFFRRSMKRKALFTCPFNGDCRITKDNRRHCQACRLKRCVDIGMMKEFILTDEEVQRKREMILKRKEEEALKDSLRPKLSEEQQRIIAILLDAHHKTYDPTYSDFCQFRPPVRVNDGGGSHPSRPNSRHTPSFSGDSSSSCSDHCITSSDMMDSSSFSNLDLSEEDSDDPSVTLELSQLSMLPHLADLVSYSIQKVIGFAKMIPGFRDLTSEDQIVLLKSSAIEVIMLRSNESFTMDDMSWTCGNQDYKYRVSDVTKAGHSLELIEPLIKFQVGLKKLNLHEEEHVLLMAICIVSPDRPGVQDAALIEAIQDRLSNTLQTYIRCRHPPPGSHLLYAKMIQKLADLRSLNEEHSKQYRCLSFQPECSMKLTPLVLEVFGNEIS
Protocol: The biological activity in vitro of chemically synthesized 1α,24(S)-(OH)2 D2 and 1α,24(R)-(OH)2 D2 was measured using a vitamin D-dependent transcriptional activation model system in which a vitamin D receptor (VDR)-expressing plasmid pSG5-hVDR1/3and a plasmid p(CT4)^4 TKGH containing a Growth Hormone (GH)-gene, under the control of a vitamin D-responsive element (VDRE) were co-transfected into Green monkey kidney, COS-1 cells. DNA's for these two vectors were supplied by Dr. Mark Haussler, Department of Biochemistry, University of Arizona, Tucson, Ariz.
Tranfected cells were incubated with vitamin D metabolites and growth hormone production was measured.

[2] = tested on: Human keratinocytes; assay: epidermal cell differentiation and proliferation testing; assay type: cell-based; conditions: 0.05 to 5 μg/ml, versus ethanol control cultures
Protocol: Human keratinocytes are cultured according to known modifications of the system originally described by Rheinwald and Green (Cell, vol. 6, p. 331 (1975)). The 1α,24(S)-dihydroxy vitamin D2, dissolved in ethanol, is added to cells to yield a variety of concentrations between 0.05 and 5 μg/ml with the ethanol concentration not to exceed 0.5% v/v. Control cultures are supplemented with ethanol at a final concentration of 0.5% v/v.
Differentiation and proliferation of epidermal cells in culture is examined by:
1. quantitation of cornified envelopes;
2. quantitation of cell density of cells attached to disks;
3. monitoring transglutaminase activity; or
4. monitoring DNA synthesis by incorporation of ^3 H-thymidine.

[3] = tested on: human cancer cell lines BCA-1 or ZR-75-1 (breast) and COL-1 (colon); assay: antiproliferative activity in human cancer cell lines (thymidine incorporation); assay type: cell-based; conditions: dose-response
Protocol: Dose-response studies are conducted with 1α,24(S)-(OH)2 D2 in a battery of human cancer cell lines. These cell lines include, but are not limited to, the following: BCA-1 or ZR-75-1 (breast) and COL-1 (colon), as described by Shieh, H. L. et al. Chem. Biol. Interact., vol. 81, pp. 35-55 (1982). In this study, appropriate solvents are used as negative controls.

[4] = tested on: men and women with renal disease undergoing chronic hemodialysis; assay: hypocalcemia and metabolic bone disease in chronic hemodialysis patients; assay type: in vivo, human; conditions: greater than 3.0 μg/day, twelve months
Protocol: A twelve-month, double-blind, placebo-controlled clinical trial is conducted with thirty men and women with renal disease who are undergoing chronic hemodialysis. […] Efficacy is evaluated by pre- and post-treatment comparisons of the two patient groups with regard to (a) direct measurements of intestinal calcium absorption, (b) total body calcium retention, (c) radial and spinal bone mineral density, or (d) determinations of serum calcium. Safety is evaluated by regular monitoring of serum calcium.

[5] = tested on: HL-60 promyelocytes; assay: HL-60 cell differentiation assay; assay type: cell-based; conditions: dose-response; acid esterase, NBT reduction, thymidine incorporation
Protocol: A dose-response study is conducted with 1α,24(S)-(OH)2 D2 in the HL-60 cell differentiation assay as described by DeLuca and Ostrom (DeLuca, H. F. and Ostrem, V. K., Prog. Clin. Biol. Res., vol. 259, pp. 41-55 (1988)). In this study, 1α,25-(OH)2 D3 is used as a positive control and appropriate solvents are used as negative controls. The following variables are evaluated: nonspecific acid esterase activity, nitroblue tetrazolium (NBT) reduction, and thymidine incorporation.

C=C1/C(=C\C=C2/CCC[C@]3(C)[C@@H]([C@H](C)/C=C/[C@@](C)(O)C(C)C)CC[C@@H]23)C[C@@H](O)C[C@@H]1O [1α,24(S)-(OH)2 D2, 1α,24(S)-dihydroxy vitamin D2]
activity in the transcriptional activation system compared with the 24(R) epimer [1]: significantly more activity in this system than 1α,24(R)-(OH)2 D2
DNA synthesis by incorporation of 3H-thymidine [2]: lower DNA synthesis
cell density of cells attached to disks [2]: fewer attached cells
cornified envelopes [2]: more cornified envelopes
transglutaminase activity [2]: higher transglutaminase activity
antiproliferative activity, inhibition of thymidine incorporation [3]: potent (and reversible) antiproliferative activity
radial and spinal bone densities relative to baseline [4]: stable radial and spinal bone densities
total body calcium relative to baseline [4]: stable values for total body calcium
intestinal calcium absorption ([4]; double-isotope technique): significantly increases intestinal calcium absorption
differentiation of HL-60 promyelocytes to monocytes [5]: potent activity in promoting differentiation of HL-60 promyelocytes to monocytes
